Test results from patent US6465486B1 (Ortho-McNeil Pharmaceutical, Inc., priority 1999, dated 2002).
Structures can show the parent of a compound that is named as a salt. Where two headings read alike, the source gives them in different places.

What was measured:
[1] = biological target: T1, Alpha-2D Adrenergic Receptor (Rattus norvegicus, UniProt P22909); assay: Alpha-2D Adrenergic Receptor Binding Assay (3H-para-aminoclonidine, rat cortex membranes); details: for % inh of α2D: cells printed with % sign, test concentration not given
T1 construct: aliquots of the synaptic membrane fraction, the ligand ^3H-para-aminoclonidine and test drug; from tissue; host or cells: rat brain cortex, synaptic membrane fraction
T1 sequence (P22909 1-465): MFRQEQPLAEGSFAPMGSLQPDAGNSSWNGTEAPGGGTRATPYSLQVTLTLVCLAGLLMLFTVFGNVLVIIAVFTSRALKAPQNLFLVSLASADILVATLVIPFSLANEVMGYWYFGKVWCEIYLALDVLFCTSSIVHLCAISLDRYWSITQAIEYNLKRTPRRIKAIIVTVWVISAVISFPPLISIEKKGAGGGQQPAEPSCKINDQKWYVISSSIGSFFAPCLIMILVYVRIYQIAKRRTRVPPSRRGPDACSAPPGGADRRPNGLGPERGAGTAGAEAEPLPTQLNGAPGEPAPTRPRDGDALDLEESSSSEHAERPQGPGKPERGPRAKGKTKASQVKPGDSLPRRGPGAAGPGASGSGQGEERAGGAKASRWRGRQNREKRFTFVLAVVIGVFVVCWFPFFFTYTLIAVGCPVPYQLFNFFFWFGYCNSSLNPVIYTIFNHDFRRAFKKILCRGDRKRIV
Experimental: Alpha-2D Adrenergic Receptor Binding Assay
Male, Wistar rats (150-250 g, VAF, Charles River, Kingston, N.Y.) are sacrificed by cervical dislocation and their brains removed and placed immediately in ice cold HEPES buffered sucrose. The cortex is dissected out and homogenized in 20 volumes of HEPES sucrose in a Teflon™-glass homogenizer. The homogenate is centrifuged at 1000 g for 10 min, and the resulting supernatant centrifuged at 42,000 g for 10 min. The resulting pellet is resuspended in 30 volumes of 3 mM potassium phosphate buffer, pH 7.5, preincubated at 25° C. for 30 min and recentrifuged. The resulting pellet is resuspended as described above and used for the receptor binding assay. […] The incubation is terminated by filtration of the tube contents through glass fiber filter sheets. Following washing of the sheets with 10 mM HEPES buffer, the adhering radioactivity is quantified by liquid scintillation spectrometry.
Binding of the test drug to the receptor is determined by comparing the amount of radiolabeled ligand bound in control tubes without drug to the amount of radiolabeled ligand bound in the presence of the drug. Dose-response data are analyzed with LIGAND, a nonlinear curve fitting program designed specifically for the analysis of ligand binding data.

[2] = tested on: mouse acetylcholine bromide-induced abdominal constriction; assay: Mouse Acetylcholine Bromide-Induced Abdominal Constriction Assay (MAIT); type: in vivo; details: po; dose not given; acetylcholine bromide 5.5 mg/kg i.p. 30 minutes after drug
Experimental: Mouse Acetylcholine Bromide-Induced Abdominal Constriction Assay (MAIT)
The mouse acetylcholine bromide-induced abdominal constriction assay, as described by Collier et al. in Brit. J. Pharmacol. Chem. Ther., 32: 295-310, 1968, with minor modifications was used to assess analgesic potency of the compounds herein. The test drugs or appropriate vehicle were administered orally (p.o.) and 30 minutes later the animal received an intraperitoneal (i.p.) injection of 5.5 mg/kg acetylcholine bromide (Matheson, Coleman and Bell, East Rutherford, N.J.). The mice were then placed in groups of three into glass bell jars and observed for a ten minute observation period for the occurrence of an abdominal constriction response (defined as a wave of constriction and elongation passing caudally along the abdominal wall, accompanied by a twisting of the trunk and followed by extension of the hind limbs). The percent inhibition of this response to a nociceptive, stimulus (equated to % analgesia) was calculated as follows: The % Inhibition of response, i.e., % analgesia is equal to the difference between the number of control animals responding and the number of drug-treated animals responding times 100 divided by the number of control animals responding.
At least 15 animals were used for control and in each of the drug treated groups. […] The ED50 values and their 95% fiducial limits were determined by a computer assisted probit analysis.

Row | Compound | % inh of α2D [1] [%] | % inh of MAIT [2] [po %] | melting point [°C] | Ki ([1]; rat cortex synaptic membranes, ligand 3H-para-aminoclonidine, cells without % sign, read-out: α2D Ki) [nM] | Ki [1] [nM]
1 | Cl.Cl.c1cncc(Cc2c[nH]cn2)c1 [Cp-3] | 89 | 47 |  |  | 
2 | Cc1ncccc1CCc1c[nH]cn1.Cl.Cl [Cp-2, 4-[(2-Methylpyrid-3-yl)ethyl]-1H-imidazole Dihydrochloride] |  |  | 258.5 to 263 |  | 
3 | c1ccc(C(c2ccccn2)c2c[nH]cn2)cc1 (stereo not shown) [Cp-7, 4-[(Pyridin-2-yl)methylphenyl]-1H-imidazole] |  | 13 |  | 1000 | 
4 | CC(c1cncc(Br)c1)c1c[nH]cn1 (stereo not shown) [Fumarate] |  | 53 |  |  | 
5 | Brc1cncc(Cc2c[nH]cn2)c1.O=C(O)/C=C/C(=O)O [Cp-4, 4-[(5-Bromopyridin-3-yl)methyl]-1H-imidazole Fumarate] | 83 | 54 | 139 to 145 |  | 
6 | c1ccc2nc(Cc3c[nH]cn3)ccc2c1 [Cp-9] |  | 20 |  |  | 1.6
7 | Brc1cncc(CCc2c[nH]cn2)c1.O=C(O)/C=C/C(=O)O [Cp-5, 4-[(5-Bromopyridin-3-yl)ethyl]-1H-imidazole Fumarate] |  |  | 156 to 158 |  | 
8 | Cc1ncccc1Cc1c[nH]cn1.Cl.Cl [Cp-1, 4-[(2-Methylpyrid-3-yl)methyl]-1H-imidazole Dihydrochloride] |  | 93 | 236 to 237.5 |  | 7.1
9 | Cc1ncccc1C(C)c1c[nH]cn1 (stereo not shown) [Dihydrochloride] |  | 33 |  |  | 
10 | Cl.c1ccc(Cc2c[nH]cn2)nc1 [Cp-6, 4-[(Pyridin-2-yl)methyl]-1H-imidazole Hydrochloride] | 83 | 40 | 197 to 200 |  | 
